For experiment [1], the target named is T1, human serotonin re-uptake transporter (hSERT) (Homo sapiens, UniProt P31645).
T1 construct: host or cells: HEK-293
Put plainly: Inhibition of tritiated serotonin uptake into transfected HEK-293 cells. The format is cell-based. The note with it: HEK-293 cells expressing hSERT; 20 nM [3H] serotonin, 40 min, 37° C.; mean ± s.e.m. From the text:
HEK-293 cells stably expressing the human serotonin re-uptake transporter (hSERT) were obtained from R. Blakely, Vanderbilt University, USA. The cells were routinely grown in Dulbecco's Modified Eagle's Medium (Bioconcept) containing 10% fetal calf serum, penicillin, streptomycin, L-glutamine and the antibiotic G418 and passaged by trypsinisation. On the day of assay, cells from 80% confluent flasks were harvested by gentle washing with warm phosphate buffered saline (PBS). […] Serotonin uptake into the cells was determined by addition of radio-labelled [^3H] serotonin (GE Healthcare) at a concentration of 20 nM, and incubation for 40 minutes at 37° C. with gentle shaking. At the end of this time unincorporated label was removed by filtration though Unifilter 96 GF/B plates (Perkin Elmer) using a Tomtec Mach III M cell harvester. The incorporated serotonin retained on the plates was quantified by liquid scintillation counting using Microscint-40/Topcount (Perkin Elmer).

Experiment [2] deals with mouse. Put plainly: Porsolt's forced swim test (FST). Type of experiment: in vivo. The protocol: Mice were individually placed in cylinders (24.5 cm height, 19.5 cm internal diameter) containing 13.5 cm depth of water (22±0.5° C.) for a period of 6 minutes, behavioural parameters of interest being analysed during the final 4 minutes of the test, since the first 2 minutes include vigorous activity. Six cylinders were placed in a Perspex box, thus enabling six mice to be tested simultaneously.
Automatic monitoring of swim tests was enabled through the use of VideoMot2 software (TSE Technical and Scientific Equipment GmbH, Bad Homburg, Germany). All to experiments were observed via a black and white CCD camera. The rest:locomotion and stop:start thresholds, as determined by setting parameters in the software programme, determine the number of pixels which must change for a movement to be registered, enabling the software to determine whether a mouse is swimming or resting. The parameters which are automatically recorded include: rest time and locomotion time (ms), % rest and % locomotion, distance travelled (cm), speed of travel (cm/s) and number of stops.
Data were analysed by comparing treated groups with the untreated control group using Fisher's PLSD (StatView, SAS Institute Inc., Cary, N.C., USA)

The target in experiment [3] is T2, Monoamine oxidase A (MAO-A) (Homo sapiens, UniProt P21397).
T2 sequence (P21397 1-527): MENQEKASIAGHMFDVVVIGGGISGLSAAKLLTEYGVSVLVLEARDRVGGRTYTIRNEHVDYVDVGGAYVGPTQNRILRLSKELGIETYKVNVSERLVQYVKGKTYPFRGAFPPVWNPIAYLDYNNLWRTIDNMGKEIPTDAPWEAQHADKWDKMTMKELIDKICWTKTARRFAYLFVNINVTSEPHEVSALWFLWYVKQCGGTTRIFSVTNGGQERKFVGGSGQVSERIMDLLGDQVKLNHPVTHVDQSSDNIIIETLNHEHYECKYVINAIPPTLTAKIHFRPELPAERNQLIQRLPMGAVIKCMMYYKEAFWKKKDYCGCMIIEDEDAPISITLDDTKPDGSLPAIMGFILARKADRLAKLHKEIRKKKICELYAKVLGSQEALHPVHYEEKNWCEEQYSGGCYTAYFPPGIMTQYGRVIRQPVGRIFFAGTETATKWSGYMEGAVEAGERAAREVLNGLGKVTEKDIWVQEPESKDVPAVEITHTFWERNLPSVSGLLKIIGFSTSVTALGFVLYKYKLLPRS
Put plainly: Monoamine oxidase A inhibition (p-tyramine substrate, H2O2/vanillic acid/HRP readout). Type of experiment: biochemical. As to the method: The organic amines p-tyramine or benzylamine were used as substrates for the Monoamine oxidase A (MAO-A) and B (MAO-B) enzymes respectively. The H2O2 produced by this reaction was quantified by reaction with vanillic acid, catalysed by horse radish peroxidase (HRP).
The reactions were carried out in polystyrene microtitre plates. The MAO enzymes (final concentration 2 U/ml) were mixed with either p-tyramine (Sigma, final concentration 0.5 mM) or benzylamine (Sigma, final concentration 0.5 mM) as appropriate and the chromogenic solution (containing vanillic acid (Fluka), 4-aminoantipyrine (Fluka) and horse radish peroxidase (Sigma), final concentrations 0.25 mM, 0.125 mM and 1 U/ml respectively) in 0.2 M potassium phosphate buffer, pH 7.6. The reactions were followed in a microtitre plate absorbance reader e.g. Spectramax M5 (Molecular Devices Corporation). Absorbance readings at 495 nm were taken every 15 seconds for 40 minutes and the initial reaction velocities calculated by linear regression using SOFTmaxPro (Molecular Devices Corporation).
The effect of tricyclic diterpenes and their derivatives according to formula I on the monoamine oxidase enzymes was determined by their inclusion in the assay at a range of concentrations between 0.03 and 100 μM for 10 minutes prior to and during the incubation with substrate. To determine the effect of the compounds on the HRP catalyzed portion of the reaction, the MAO enzyme was replaced by H2O2 (Molecular Probes, final concentration 0.2 mM). The reactions containing MAO-A and MAO-B were both inhibited by tricyclic diterpenes and their derivatives according to formula I in a dose-dependent manner, whilst the control reaction, was unaffected. The measured IC50 values for inhibition of monoamine oxidase activity by carnosic acid, carnosic acid-12-methyl ether and 20-deoxo-carnosol are shown in Table 3.

Experiment [4] concerns mouse. Put plainly: Marble burying test. Type of experiment: in vivo. The note with it: mouse; for NUMBER OF MARBLES COVERED BY SAWDUST % change from control / NUMBER OF MARBLES COVERED BY SAWDUST mean ± s.e.m.: Table 5. As to the method:
The method applied here follows that described by Broekkamp et al., supra. Mice (n=15 per treatment group) were individually placed in transparent plastic cages (33×21×18 cm) with 5 cm of sawdust on the floor and 25 marbles (diameter 1 cm) grouped in the centre of the cage. A second, up-turned, cage served as a lid. The number of marbles covered by sawdust (by at least two-thirds) was counted at the end of the 30-minute test period. Tests were performed by investigators blind to the drug treatment protocol.
Prior to testing, all test cages and marbles were “impregnated” by leaving 10 naive mice in each cage for 15 minutes. […]
Data were analysed by comparing treated groups with vehicle control using unpaired Student's t-tests.

T1 sequence (P31645 whole entry): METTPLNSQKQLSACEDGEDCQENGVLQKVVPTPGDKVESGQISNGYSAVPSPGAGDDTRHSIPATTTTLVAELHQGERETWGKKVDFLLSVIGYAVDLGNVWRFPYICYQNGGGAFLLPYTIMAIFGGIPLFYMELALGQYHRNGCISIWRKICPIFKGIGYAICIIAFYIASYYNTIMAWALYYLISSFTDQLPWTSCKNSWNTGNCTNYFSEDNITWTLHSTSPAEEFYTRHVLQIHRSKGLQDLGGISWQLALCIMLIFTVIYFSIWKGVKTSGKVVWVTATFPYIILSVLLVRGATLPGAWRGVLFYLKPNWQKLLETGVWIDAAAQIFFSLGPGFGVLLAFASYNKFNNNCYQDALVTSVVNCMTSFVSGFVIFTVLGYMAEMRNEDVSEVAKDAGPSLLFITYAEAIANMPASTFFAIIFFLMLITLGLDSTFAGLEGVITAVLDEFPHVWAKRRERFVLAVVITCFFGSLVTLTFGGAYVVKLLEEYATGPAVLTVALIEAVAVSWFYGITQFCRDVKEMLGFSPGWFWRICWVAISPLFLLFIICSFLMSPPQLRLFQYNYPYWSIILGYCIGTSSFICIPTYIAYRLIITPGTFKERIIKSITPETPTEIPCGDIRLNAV

As a reminder, the IC50 is the concentration that gives 50% inhibition. As for `CC(C)c1cc2c(c(O)c1O)[C@@]1(C(=O)O)CCCC(C)(C)[C@@H]1CC2` [Carnosic acid, carnosic acid], the IC50 in experiment [1] was determined as 36.4 ± 6.8 µM; in experiment [3], 4.4 ± 0.3 µM. In addition, the “Duration of immobility (% change from control)” value is reported as −29% in the experiment with mouse [2] (10 mg/kg i.p., −30 min); −30% in the experiment with mouse [2] (20 mg/kg i.p., −30 min); −29% in the experiment with mouse [2] (30 mg/kg i.p., −30 min); −38% in the experiment with mouse [2] (200 mg/kg p.o., −24, −5, −1 h). In the experiment with mouse [2] (all doses tested, i.p. and p.o. administration), the “immobility behaviour (in words)” value was “significantly reduced immobility behaviour”. In addition, the “NUMBER OF MARBLES COVERED BY SAWDUST % change from control” value in the experiment on mouse [4] (3 mg/kg i.p. −30 min) is recorded as −8%; in the experiment with mouse [4] (10 mg/kg i.p. −30 min), −4%; in the experiment with mouse [4] (30 mg/kg i.p. −30 min), −63%. Besides, the “NUMBER OF MARBLES COVERED BY SAWDUST mean ± s.e.m.” value with mouse [4] (3 mg/kg i.p. −30 min) is listed as 21.9 ± 1.3; in the experiment with mouse [4] (10 mg/kg i.p. −30 min), 22.7 ± 0.5; in the experiment with mouse [4] (30 mg/kg i.p. −30 min), 8.7 ± 2.9. In addition, the “marble burying behaviour (in words)” value in the experiment with mouse [4] (highest dose tested (30 mg/kg) i.p.) is “clearly and significantly reduced marble burying behaviour”.

(Values after US8748491B2, “Dietary and pharmaceutical compositions containing tricyclic diterpenes and their derivatives and their uses” (priority 2006, dated 2014).)
